Our source for the Activity values is ChEMBL document CHEMBL3046331, “Ethyl 4-[(1-substituted indol-2-yl)methoxy]benzoates and indoline derivatives: Anti-juvenile hormone and juvenile hormone activities” (2009).

Assay [1] concerns Bombyx mori. The experiment in a line: Antijuvenile hormone activity in third-instar larvae of Bombyx mori assessed as induction of precocious metamorphosis at 40 ug/larvae topically applied to the dorsal abdomen. In kind it is functional.
Assay [2] relates to Bombyx mori. The experiment in a line: Antijuvenile hormone activity in third-instar larvae of Bombyx mori assessed as induction of precocious metamorphosis at 10 ug/larvae topically applied to the dorsal abdomen. In kind it is functional.
The test system of assay [3] is Bombyx mori. The experiment in a line: Antijuvenile hormone activity in third-instar larvae of Bombyx mori assessed as induction of precocious metamorphosis at 1 ug/larvae topically applied to the dorsal abdomen. It counts as functional.
In assay [4] the test system is Bombyx mori. The experiment in a line: Juvenile hormone activity in allatectomized fourth-instar larvae of Bombyx mori assessed as number of larvae transformed into precocious pupa at 40 ug/larvae topically applied to the dorsal abdomen. In kind it is functional, organism-based.
For assay [5], the system named is Bombyx mori. The experiment in a line: Juvenile hormone activity in allatectomized fourth-instar larvae of Bombyx mori assessed as number of larvae transformed into fifth instar larvae at 40 ug/larvae topically applied to the dorsal abdomen. It counts as functional, organism-based.
The subject of assay [6] is Bombyx mori. The experiment in a line: Juvenile hormone activity in allatectomized fourth-instar larvae of Bombyx mori assessed as number of larvae transformed into larval-pupal intermediate at 40 ug/larvae topically applied to the dorsal abdomen. In kind it is functional, organism-based.
Assay [7] deals with Bombyx mori. The experiment in a line: Juvenile hormone activity in allatectomized fourth-instar larvae of Bombyx mori assessed as number of larvae transformed into fifth instar larvae at 1 ug/larvae topically applied to the dorsal abdomen. It counts as functional, organism-based.
Assay [8] deals with Bombyx mori. The experiment in a line: Juvenile hormone activity in allatectomized fourth-instar larvae of Bombyx mori assessed as number of larvae transformed into larval-pupal intermediate at 1 ug/larvae topically applied to the dorsal abdomen. It counts as functional, organism-based.
Assay [9] concerns Bombyx mori. The experiment in a line: Juvenile hormone activity in allatectomized fourth-instar larvae of Bombyx mori assessed as number of larvae transformed into precocious pupa at 1 ug/larvae topically applied to the dorsal abdomen. In kind it is functional, organism-based.

Calls of active or inactive are those of the source. The rule behind the calls is not given here.

Regarding `CCOC(=O)c1ccc(OC[C@@H]2Cc3ccccc3N2Cc2ccccc2)cc1`, the results for the Activity with Bombyx mori [1], in the assay on Bombyx mori [2] and in the assay on Bombyx mori [3] were 28%, 25% and 5%, respectively.
The matching figures for `CCCn1c(COc2ccc(C(=O)OCC)cc2)cc2ccccc21`: 90%, 95% and 67%.
In the case of `CCOC(=O)c1ccc(OCc2cc3ccccc3n2CC)cc1`, the Activity with Bombyx mori [1], in the assay with Bombyx mori [2] and in the assay on Bombyx mori [3] was 5% in each case.
`CCCCn1c(COc2ccc(C(=O)OCC)cc2)cc2ccccc21`: the result in the assay on Bombyx mori [4] and in the assay on Bombyx mori [6] was inactive. The Activity in the assay on Bombyx mori [1] was 94%; with Bombyx mori [2], 93%; in the assay on Bombyx mori [3] it was 65%. For the same compound, the outcome in the assay with Bombyx mori [5] was Active.
For the compound `CCCCC(COc1ccc(C(=O)OCC)cc1)Cc1ccccc1` (stereo unspecified), the Activity in the assay with Bombyx mori [1] was determined as 12%; with Bombyx mori [2] it was 34%; in the assay on Bombyx mori [3], 90%.
With `CCOC(=O)c1ccc(OCc2cc3ccccc3n2Cc2ccccc2)cc1`, the Activity was found to be 84% in the assay on Bombyx mori [1], 73% in the assay on Bombyx mori [2] and 73% in the assay on Bombyx mori [3]. Moreover, the result in the assay on Bombyx mori [6] was inactive.
For `COC(C)(C)CCC[C@H](C)C/C=C/C(C)=C/C(=O)OC(C)C`, the result with Bombyx mori [7] was Active. In addition, the result with Bombyx mori [8] and in the assay on Bombyx mori [9] was inactive.
As for `CCCCN1c2ccccc2C[C@H]1COc1ccc(C(=O)OCC)cc1`, in the assay with Bombyx mori [4], the result was Active. Besides, the Activity in the assay with Bombyx mori [1] came out at 82%; with Bombyx mori [2] it was 65%; in the assay with Bombyx mori [3], 5%. Besides, the result in the assay with Bombyx mori [5] and in the assay on Bombyx mori [6] was inactive.
